Test results from patent US20250295612A1, “NOVEL AMYLOID-BETA AGGREGATE DEGRADER AND BRAIN-TARGETING DRUG DELIVERY SYSTEM USING SAME” (UNIVERSITY-INDUSTRY COOPERATION GROUP OF KYUNG HEE …, priority 2022, published 2025).

Legend:
[1] = target: T1, amyloid-beta plaques (amyloid-beta (Aβ) 1-42) (Homo sapiens, UniProt P05067); test: Thioflavin T (ThT) fluorescence analysis of amyloid-beta plaque disaggregation; assay type: biochemical
T1 construct: amyloid-beta (Aβ) 1-42 (Anaspec, AS-20276, MW=4514.1, 1 mg); purchased Anaspec AS-20276
Procedure: To prepare amyloid-beta plaques, amyloid-beta (Aβ) 1-42 (Anaspec, AS-20276, MW=4514.1, 1 mg) was dissolved in a 1× PBS buffer (pH 7.4, 1 mL) to a final concentration of 222 μM. The solution was incubated (200 rpm) at 37° C. for 3 days, and the formed amyloid-beta plaques (Aβ plaques) were used in the following in vitro experiment without additional purification. From the formed library, hit compounds were identified through fluorescence analysis using thioflavin T (ThT), a probe of amyloid-beta plaques. Specifically, each amyloid-beta plaque disaggregation candidate (100 μM) was mixed with amyloid-beta plaques (10 μM) and ThT (10 μM), and incubated at 37° C. for 24 hours, and then a change in fluorescence intensity of ThT at 482 nm was confirmed (excitation wavelength: 413 nm). The absorption and emission spectra of ThT were obtained using UV/vis absorption spectroscopy (Agilent, California, USA) and a spectrofluorophotometer (Shimadzu Corp., Kyoto, Japan). For Compound P (ANA), a hit compound confirmed in Example 1, the amyloid-beta plaque disaggregation efficacy under various concentration conditions and pH conditions was confirmed through ThT assay in the same manner as in Example 1, and an emission intensity plot of ThT (10 μM) at 482 nm was shown in FIG. 2 (excitation wavelength: 413 nm).

amyloid-beta plaques [2] = target: T2, amyloid-beta plaques (Homo sapiens, UniProt P05067); test: TEM analysis of amyloid-beta plaque morphology; conditions: ANA (100 µM), plaques 20 μM
T2 construct: amyloid-beta (Aβ) 1-42 (Anaspec, AS-20276, MW=4514.1, 1 mg); purchased Anaspec AS-20276
Procedure: (§1) To prepare amyloid-beta plaques, amyloid-beta (Aβ) 1-42 (Anaspec, AS-20276, MW=4514.1, 1 mg) was dissolved in a 1× PBS buffer (pH 7.4, 1 mL) to a final concentration of 222 μM. The solution was incubated (200 rpm) at 37° C. for 3 days, and the formed amyloid-beta plaques (Aβ plaques) were used in the following in vitro experiment without additional purification.
For TEM analysis, amyloid-beta plaques (20 μM) or amyloid-beta plaques (20 μM) and a compound (ANA, 100 μM) were treated on copper grids at room temperature. Each grid treated with samples (Aβ plaques or Aβ plaques+ANA) was washed three times with DI H2O and then stained with uranyl acetate (1% w/v DI H2O, 5 μL) for 1 minute. The uranyl acetate was removed, the grids were dried at room temperature for 20 minutes, and then the morphology of amyloid-beta plaques was analyzed by transmission electron microscopic images (TEM, Tecnai, G2 F30ST, FEI Company, OR, USA).

amyloid-beta plaques [3] = target: T2, amyloid-beta plaques; test: Confocal microscopy of amyloid-beta plaques with thioflavin S (ThS); conditions: incubation with ANA for 24 hours
Procedure: as §1
In addition, to evaluate the presence of amyloid-beta plaques (AB plaques) and a change in the disaggregation morphology of amyloid-beta plaques according to incubation with ANA for 24 hours, thioflavin S (ThS), a probe of amyloid-beta plaques, was additionally treated, and the change thereof was confirmed by fluorescence analysis using a confocal microscope. The samples (Aβ plaques, Aβ plaques +ANA) were added to 1 mL of a ThS (0.5%) solution, and each mixture was pipetted onto a slide glass and dried overnight at room temperature. Then, fluorescence images were obtained using a laser scanning confocal microscope (CLSM, LSM800, Zeiss, Oberkochen, Germany). Confocal images were obtained under excitation at 520 nm (laser power: 3.00%) using a detector (GaAsP, detector gain: 680 V, detector wavelength: 548 to 617 nm).

amyloid-beta plaques [4] = target: T2, amyloid-beta plaques; test: ThT emission with supernatant of BCAP (released ANA); assay type: biochemical; conditions: PBS pH 7.4, 25° C., ThT 10 μM

T1 sequence (P05067 672-713 limits assumed): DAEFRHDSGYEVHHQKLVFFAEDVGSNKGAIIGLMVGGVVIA
T2 sequence (P05067 672-713 limits assumed): as above

- amyloid-beta plaque disaggregation efficacy versus concentration ([1]; ANA 10 μM to 100 μM, plaques 10 μM): concentration-dependent manner
- fluorescence intensity change of ThT compared to a control group ([1]; candidate 100 μM, amyloid-beta plaques 10 μM, ThT 10 μM, 37° C., 24 hours, 482 nm): 23%
- morphology of amyloid-beta plaques after treatment (TEM) (amyloid-beta plaques [2]): disaggregated and released into monomers
- fluorescence intensity of ThS after treatment (amyloid-beta plaques [3]): significantly reduced
SMILES: Nc1ccc2cc(S(=O)(=O)O)ccc2c1 [ANA, 6-amino-2-naphthalenesulfonic acid]
- amyloid-beta plaque disaggregation efficacy at low concentration ([1]; ANA 10 μM, plaques 10 μM): significantly high amyloid-beta plaque disaggregation efficacy
- amyloid-beta plaque disaggregation efficacy among A-T candidates ([1]; candidate 100 μM, library screening): highest amyloid-beta plaque disaggregation efficacy
- amyloid-beta plaque disaggregation efficacy under various pH conditions ([1]; pH 3, 5, 7, 7.4, and 9): showed amyloid-beta plaque disaggregation efficacy at all pH conditions
- amyloid-beta plaque disaggregation efficacy at pH of the brain ([1]; pH 7.4): highest amyloid-beta plaque disaggregation efficacy
- amyloid-beta plaque disaggregation efficacy of ANA released from BCAP (amyloid-beta plaques [4]): still has the amyloid-beta plaque disaggregation efficacy
